US20150259331A1, “PROTOZOAN PARASITE GROWTH INHIBITORS” (Northeastern University, priority 2014, published 2015)
Where a name gives a salt, the structure may show the parent alone. Read-outs that look alike come from different tables or passages of the source.

Legend:
[1] = test system: T. cruzi; assay: T. cruzi growth inhibition; assay type: cell-based, Trypanosoma cruzi; conditions: for inhibition at 10 µM: read-out: T. cruzi % inh at 10 μM
[2] = test system: L. major amastigote; assay: L. major amastigote assay; assay type: cell-based
[3] = test system: P. falciparum C235; assay: P. falciparum C235 assay; assay type: cell-based; conditions: read-out: P. falciparum C235 (EC50)
[4] = test system: HepG2 cells; assay: HepG2 cell toxicity (MTT) assay; assay type: cell-based
Procedure: Then 2 μL of DMSO (control) or different concentrations of drugs prepared from 200× DMSO stocks were added to the cultures. […] All experiments were repeated thrice in independent studies where each dose was administered in duplicate (total n=6). HepG2 Cell Toxicity Assay. The 384 well MTT cytotoxicity assay is a modification of the MTT method described by Ferrari et al. optimized for 384-well throughput, with modifications described below.
HepG2 Cell Toxicity assay. The 384 well MTT cytotoxicity assay is a modification of the MTT method described by Ferrari et al.^1 ENREF—26_ENREF—26_ENREF—26 optimized for 384 well throughput. […] 4.25 μL of diluted test compound was then added to the 38.3 μL of media in each well providing a 10 fold final dilution of compound. […] After a 48 hour incubation period, 8 μL of a 1.5 mg/ml solution of MTT diluted in complete MEM media was added to each well. All plates were subsequently incubated in the dark for 1 hour at room temperature. After incubation, the media and drugs in each well was removed by shaking plate over sink, the plates are then left to dry in hood for 15 minutes. […] Plates are put on a 3-D rotator for 15-30 minutes. Absorbance was determined in all wells using a Tecan iControl 1.6 Infinite plate reader.

[5] = test system: P. falciparum D6; assay: P. falciparum D6 assay; assay type: cell-based; conditions: strain D6
[6] = test system: P. falciparum W2; assay: P. falciparum W2 assay; assay type: cell-based
[7] = test system: L. major promastigote; assay: L. major promastigote assay; assay type: cell-based
[8] = test system: T. brucei brucei Lister 427; assay: Trypanosome replication assay; assay type: cell-based, Trypanosoma brucei brucei; conditions: 48 h, 48 h, values ±7%
[9] = test system: P. fal; assay: P. fal assay of Table 13 (strain not given); assay type: cell-based, P. falciparum
[10] = Plasmodium falciparum, strain C235
[11] = Homo sapiens, HepG2, 48 h, MTT, 48 hour incubation, read-out: HepG2 IC50
[12] = Plasmodium falciparum, strain W2, read-out: P. falciparum W2 (EC50)
[13] = Trypanosoma brucei, concentration giving 50% inhibition of growth of T brucei brucei Lister 427 cells, read-out: Tbb EC50
[14] = Trypanosoma brucei, read-out: Tbb EC50, concentration giving 50% inhibition of growth of T brucei brucei Lister 427 cells
[15] = concentration giving 50% inhibition of growth of T brucei brucei Lister 427 cells, read-out: Tbb EC50

Row | Structure (SMILES) | EC50 ([2]; Leishmania major) [µM] | EC50 [3, 10] [µM] | EC50 ([5]; Plasmodium falciparum) [µM] | EC50 [6, 12] [µM] | EC50 ([7]; Leishmania major) [µM] | EC50 [8, 13] [µM] | EC50 ([1]; Trypanosoma cruzi) [µM] | inhibition at 10 µM ([1]; Trypanosoma cruzi) [%] | IC50 [4, 11] [µM] | other results
1 | O=S(=O)(c1ccc(-c2ccc3ncnc(Nc4ccc(OCc5ccc(F)cc5)c(Cl)c4)c3c2)cc1)N1CCOCC1 [Compound 20j, N-(3-Chloro-4-((4-fluorobenzyl)oxy)phenyl)-6-(4-(morpholinosulfonyl)phenyl)quinazolin-4-amine Hydrochloride] | > 15 | 0.24 | 0.17 | 0.36 | 1.7 | 1.34 |  | -1 | > 15 | EC50 ([8]; concentration giving 50% inhibition of growth of T brucei brucei Lister 427 cells, listed as NEU-566, Hydrochloride, read-out: Tbb EC50): 1.3 µM
2 | O=S(=O)(c1ccc(-c2ccc3ncnc(Nc4ccc(OCc5ccc(C(F)(F)F)c(F)c5)c(Cl)c4)c3c2)cc1)N1CCOCC1 [Compound 20l, N-(3-Chloro-4-((3-fluoro-4-(trifluoromethyl)benzyl)oxy)-phenyl)-6-(4-(morpholinosulfonyl)phenyl)quinazolin-4-amine Hydrochloride] | 2.5 | 0.64 | 0.57 | 1.11 | 14 | 0.54 |  | 21 | > 15 | 
3 | O=S(=O)(c1ccc(-c2ccc3ncnc(Nc4ccc(OCc5cccc(F)c5)cc4)c3c2)cc1)N1CCOCC1 [Compound 20n, N-(4-((3-Fluorobenzyl)oxy)phenyl)-6-(4-(morpholinosulfonyl)phenyl)quinazolin-4-amine] | 0.47 | 0.85 | 0.44 | 2 | 0.48 | 0.65 |  | 10 | > 15 | 
4 | Fc1cccc(COc2ccc(Nc3ncnc4ccc(-c5ccc(N6CCOCC6)cc5)cc34)cc2Cl)c1 [Compound 23b, N-(3-Chloro-4-((3-fluorobenzyl)oxy)phenyl)-6-(4-morpholinophenyl)quinazolin-4-amine] | > 15 | 0.29 | 0.27 | 1.1 | 4.4 |  |  | 10 | 9.6 | EC50 [8, 14]: 1.91 µM; EC50 ([8]; read-out: Tbb EC50, concentration giving 50% inhibition of growth of T brucei brucei Lister 427 cells, listed as NEU-733): 1.9 µM
5 | Fc1cccc(COc2ccc(Nc3ncnc4ccc(-c5ccc(CN6CCOCC6)cc5)cc34)cc2Cl)c1 [Compound 23d] |  |  |  |  |  |  |  |  |  | EC50 [1]: 0.6 µM; EC50 [2]: 5.9 µM; EC50 ([3]; strain C235): 0.085 µM; IC50 ([4]; MTT, 48 hour incubation, read-out: HepG2 IC50): 12.9 µM; EC50 [5]: 0.064 µM; EC50 ([6]; strain W2, read-out: P. falciparum W2 (EC50)): 0.1 µM; EC50 [7]: 2.7 µM; EC50 [8, 15]: 0.99 µM
6 | Fc1cccc(COc2ccc(Nc3ncnc4ccc(-c5cccc(N6CCCCC6)c5)cc34)cc2Cl)c1 [Compound 23g, N-(3-Chloro-4-((3-fluorobenzyl)oxy)phenyl)-6-(3-(piperidin-1-yl)phenyl)quinazolin-4-amine] | > 15 |  | 0.64 |  | > 15 |  |  | 24 |  | EC50 ([3]; Plasmodium falciparum): 1.1 µM; IC50 ([4]; Homo sapiens, HepG2, 48 h, read-out: HepG2 IC50, MTT, 48 hour incubation): > 15 µM; EC50 ([6]; Plasmodium falciparum, W2, read-out: P. falciparum W2 (EC50)): 1.8 µM; EC50 [8, 14]: 0.76 µM
7 | O=C(c1cccc(-c2ccc3ncnc(Nc4ccc(OCc5cccc(F)c5)c(Cl)c4)c3c2)c1)N1CCCCC1 [Compound 23k, (3-(4-((3-Chloro-4-((3-fluorobenzyl)oxy)phenyl)amino)-quinazolin-6-yl)phenyl)(piperidin-1-yl)methanone] | 3.5 | 0.57 | 0.52 | 0.96 | 3.5 |  | > 50 |  | > 6 | EC50 [8, 14]: 0.14 µM
8 | Clc1cc(Nc2ncnc3ccc(-c4cccc(N5CCOCC5)c4)cc23)ccc1OCc1ccccc1 [Compound 23m, N-(4-(Benzyloxy)-3-chlorophenyl)-6-(3-morpholinophenyl)-quinazolin-4-amine] | > 15 | 0.72 | 0.79 | 1.7 | 6.6 | 0.23 | 1.3 |  | > 20 | 
9 | c1ccc(Nc2ncnc3ccc(-c4cccc(N5CCOCC5)c4)cc23)cc1 [Compound 23o, 6-(3-Morpholinophenyl)-N-phenylquinazolin-4-amine] | > 15 | 4.6 | 3.1 | 3.3 | 9.4 | 11 | 6.72 |  | 7.02 | 
10 | CN1CCN(S(=O)(=O)c2ccc(-c3ccc4ncc(C#N)c(Nc5ccc(OCc6cccc(F)c6)c(Cl)c5)c4c3)cc2)CC1 [NEU-993] |  |  |  |  |  |  |  |  |  | EC50 [9]: 0.082 µM; EC50 [7]: > 15 µM; EC50 [8, 15]: 1.1 µM

Second part, led by results:

Row | EC50 ([2]; Leishmania major) [µM] | EC50 [3, 10] [µM] | EC50 ([5]; Plasmodium falciparum) [µM] | EC50 [6, 12] [µM] | EC50 ([7]; Leishmania major) [µM] | EC50 [8, 13] [µM] | EC50 ([1]; Trypanosoma cruzi) [µM] | Structure (SMILES) | inhibition at 10 µM ([1]; Trypanosoma cruzi) [%] | IC50 [4, 11] [µM] | other results
11 | 15 | 0.35 | 0.23 | 0.69 | 15 | 1.43 |  | COc1cccc(COc2ccc(Nc3ncnc4ccc(-c5ccc(S(=O)(=O)N6CCOCC6)cc5)cc34)cc2Cl)c1 [Compound 20k, N-(3-Chloro-4-((3-methoxybenzyl)oxy)phenyl)-6-(4-(morpholinosulfonyl)phenyl)quinazolin-4-amine Hydrochloride] | 5 | > 15 | EC50 ([8]; concentration giving 50% inhibition of growth of T brucei brucei Lister 427 cells, listed as NEU-567, Hydrochloride, read-out: Tbb EC50): 1.4 µM
12 | 3 | 0.24 | 0.14 | 0.45 | 3 | 1.12 |  | O=S(=O)(c1ccc(-c2ccc3ncnc(Nc4ccc(OCc5cc(F)cc(F)c5F)c(Cl)c4)c3c2)cc1)N1CCOCC1 [Compound 20m, N-(3-Chloro-4-((2,3,5-trifluorobenzyl)oxy)phenyl)-6-(4-(morpholinosulfonyl)phenyl)quinazolin-4-amine Hydrochloride] | 14 | > 3 | EC50 ([8]; concentration giving 50% inhibition of growth of T brucei brucei Lister 427 cells, listed as NEU-569, Hydrochloride, read-out: Tbb EC50): 1.1 µM
13 | > 15 | 0.6 | 0.44 | 0.65 | > 15 | 1.88 |  | COc1cc(Nc2ncnc3ccc(-c4ccc(S(=O)(=O)N5CCOCC5)cc4)cc23)ccc1OCc1cccc(F)c1 [Compound 20o, N-(4-((3-Fluorobenzyl)oxy)-3-methoxyphenyl)-6-(4-(morpholinosulfonyl)phenyl)quinazolin-4-amine] | 2 | > 15 | EC50 ([8]; concentration giving 50% inhibition of growth of T brucei brucei Lister 427 cells, listed as NEU-570, read-out: Tbb EC50): 1.9 µM
14 | > 15 | 20 | 20 | 20 | 2.7 | 0.18 |  | c1ccc(COc2ccc(Nc3ncnc4ccc(-c5cccc(N6CCOCC6)c5)cc34)cc2)cc1 [Compound 23n, N-(4-(Benzyloxy)phenyl)-6-(3-morpholinophenyl)-quinazolin-4-amine] | 37 | > 20 | 
15 |  |  |  |  |  | 0.24 | 3.5 | O=S(=O)(c1ccc(-c2ccc3c(Nc4ccc(OCc5ccccc5)c(Cl)c4)ccnc3c2)cc1)N1CCOCC1 [NEU-944, N-(4-(Benzyloxy)-3-chlorophenyl)-7-(4-(morpholinosulfonyl)phenyl)quinolin-4-amine] |  |  | EC50 ([9]; Plasmodium falciparum): 0.016 µM
16 | > 15 |  |  |  | > 15 | 1.8 | > 50 | CN1CCN(S(=O)(=O)c2ccc(-c3ccc4ccnc(Nc5ccc(OCc6cccc(F)c6)c(Cl)c5)c4c3)cc2)CC1 [NEU-950, N-(3-Chloro-4-((3-fluorobenzyl)oxy)phenyl)-7-(4-((4-methylpiperazin-1-yl)sulfonyl)phenyl)isoquinolin-1-amine] |  |  | EC50 ([9]; Plasmodium falciparum): 0.04 µM
17 | > 15 |  |  |  | 2.7 | 0.1 | > 50 | CN1CCN(S(=O)(=O)c2ccc(-c3ccc4c(Nc5ccc(OCc6cccc(F)c6)c(Cl)c5)nccc4c3)cc2)CC1 [NEU-951, N-(3-Chloro-4-((3-fluorobenzyl)oxy)phenyl)-6-(4-((4-methylpiperazin-1-yl)sulfonyl)phenyl)isoquinolin-1-amine] |  |  | EC50 ([9]; Plasmodium falciparum): 0.11 µM
